Reference: patent US20120122870A1, “Treatment Of Ischemia-Reperfusion Injury” (MUSC FOUNDATION FOR RESEARCH DEVELOPMENT, priority 2009, published 2012)
“Also recorded” adds a separate entry of the source.

Columns and labels:
[1] = test system: SK expression in the liver; assay: SK immunohistochemistry in liver after hepatic warm IR; assay type: in vivo, mice; conditions: 50 mg/kg gavage 1 h prior to surgery; 1 h-ischemia plus 6 h-reperfusion
Description: Warm IR upregulates SK in the liver. IR injury to the liver occurs in LT. Since SK is associated with inflammatory processes, we investigated whether IR affects SK expression in the liver. Male C57BL/6 mice (8-9 weeks) were gavaged with ABC294640 (ABC, 50 mg/kg) or an equal volume of vehicle (0.375% Tween-80 in phosphate buffer) 1 h prior to surgery. Under ether anesthesia, hepatic ischemia was induced by clamping the hepatic artery and portal vein to the upper three lobes of the liver (i.e., about 70% of total liver). One hour later, the ischemic liver was reperfused by opening the vascular clamp. Livers were collected 6 h later under pentobarbital anesthesia (80 mg/kg, i.p.) and SK was detected immunohistochemically. […] SK expression increased markedly after hepatic IR (FIG. 9 middle). Upregulation of SK occurred most overtly in hepatocytes in the midzonal regions of the liver lobule. […] Immunohistochemistry: Sections were deparaffinized in xylene, rehydrated in a series of graded alcohol concentrations and placed in phosphate buffered saline with 0.1% Tween-20. […] Appropriate peroxidase-conjugated secondary antibodies (DAKO Corp.) were then applied, followed by 3,3'-diaminobenzidine chromagen as the peroxidase substrate. A light counterstain of Meyer's hematoxylin was applied.

[2] = test system: neutrophil influx into the kidney (MPO activity); assay: Kidney myeloperoxidase (MPO) activity after severe kidney IR; assay type: in vivo, mice; conditions: 50 mg/kg
Description: Myeloperoxidase (MPO) activity, which is reflective of neutrophil influx into the tissue, is often used as measure of local inflammation, and was assayed in the kidneys of the mice from FIG. 4. […] Therefore, the level of kidney MPO and expected inflammatory damage in vehicle-treated animals correlates with the observed reduction in renal function.

[3] = test system: TNFα mRNA; assay: TNFα mRNA by quantitative real time PCR after hepatic warm IR; assay type: in vivo, mice
Description: ABC294640 prevents hepatic warm IR-induced tumor necrosis factor-α (TNFα) formation and NF-κB activation. Toxic cytokine formation and inflammatory processes play important roles in IR injury, and S1P is well known to promote inflammation. Accordingly, we investigated whether ABC294640 affects the expression of the pro-inflammatory cytokine TNFα after IR. Livers were harvested at 2 h after reperfusion and TNFα mRNA was detected by quantitative real time PCR. TNFα mRNA increased ˜10-fold after IR (FIG. 15, upper). ABC294640 blunted this increase in TNFα mRNA by ˜50%. NF-κB activation is involved in inflammatory cytokine formation and upregulation of adhesion molecules. After IR, phosphorylation of p65 subunit of NF-κB increased markedly, indicating NF-κB activation. This effect was also blunted by ABC294640 (FIG. 15 lower) which is consistent with our previous studies of NF-κB activation. Quantitative real-time PCR (qPCR): Total RNA in liver homogenates was isolated using a QIAGEN RNeasy kit and quantified using a NanoDrop ND-1000 Spectrophotometer. cDNAs of mRNA of interest were generated using the Bio-Rad iScript cDNA Synthesis kit. qPCR was performed on a BioRAD MyiQ single-color real-time PCR detection system. The primers used for each gene were designed using Primer 3 software. […] Data were analyzed with MyiQ software. […]

[4] = test system: hepatic warm IR in mice; assay: Survival after hepatic warm IR with removal of non-ischemic lobes; assay type: in vivo; conditions: 1 h-ischemia, non-ischemic lobes removed, observed 7 days
Excerpt: To evaluate the effects of ABC294640 on survival of mice after IR, the non-ischemic liver lobes were removed after the vascular clamp was opened and mice were observed 7 days for survival. This procedure mimics total LT.

[5] = test system: hepatic warm IR in C57BL/6 mice; assay: Liver necrosis (H+E, image analysis) after hepatic warm IR; assay type: in vivo
Description: Warm IR upregulates SK in the liver. IR injury to the liver occurs in LT. Since SK is associated with inflammatory processes, we investigated whether IR affects SK expression in the liver. Male C57BL/6 mice (8-9 weeks) were gavaged with ABC294640 (ABC, 50 mg/kg) or an equal volume of vehicle (0.375% Tween-80 in phosphate buffer) 1 h prior to surgery. Under ether anesthesia, hepatic ischemia was induced by clamping the hepatic artery and portal vein to the upper three lobes of the liver (i.e., about 70% of total liver). One hour later, the ischemic liver was reperfused by opening the vascular clamp. Livers were collected 6 h later under pentobarbital anesthesia (80 mg/kg, i.p.) and SK was detected immunohistochemically. […] SK expression increased markedly after hepatic IR (FIG. 9 middle). Upregulation of SK occurred most overtly in hepatocytes in the midzonal regions of the liver lobule.
ABC294640 prevents hepatic warm IR-induced cell death. SK increased after hepatic IR, therefore, we investigated whether ABC294640 protects against hepatic IR injury. […] Necrotic areas became panlobular after 1 h-ischemia plus 6 h of reperfusion (FIG. 10, middle). Necrotic area, quantified by computerized image analysis of 10 random fields per slide, accounted for 68% of the liver tissue (FIG. 11A). […] Hepatic apoptosis was evaluated by terminal deoxylnucleotidyl transferase-mediated deoxyuridine triphosphate biotin nick end labeling (TUNEL) (FIG. 11B). […]
Histology: Under pentobarbital anesthesia (50 mg/kg, i.p.), livers were rinsed with 10 ml normal saline and perfusion-fixed with 4% paraformaldehyde in phosphate buffer, embedded in paraffin, and sections were stained with hematoxylin-eosin (H+E). Necrotic areas in sections were quantified by image analysis using an Image-1/AT image acquisition and analysis system (Universal Imaging Corp., West Chester, Pa.) incorporating an Axioskop 50 microscope (Carl Zeiss, Inc., Thornwood, NY) and a 10× objective lens.

## O=C(NCc1ccncc1)C12CC3CC(C1)CC(c1ccc(Cl)cc1)(C3)C2 [ABC294640, 3-(4-chlorophenyl)-N-(pyridin-4-ylmethyl)adamantane-1-carboxamide]
[1]
  upregulation of SK after hepatic IR: prevents upregulation; also recorded: attenuated upregulation
[2]
  increase in kidney MPO activity (neutrophil infiltration): reduces neutrophil infiltration; also recorded: completely blocked
[3]; livers harvested 2 h after IR
  TNFα formation after hepatic IR (in words): blunts TNFα formation
[3]; livers harvested 2 h after reperfusion
  blunting of the increase in TNFα mRNA: ~50%
[4]
  survival / acute liver failure after IR (in words): significantly different; also recorded: completely prevented acute liver failure
[4]; pretreated mice
  survival after IR: 100%
[5]; 50 mg/kg, 1 h-ischemia plus 6 h of reperfusion, image analysis of 10 random fields
  necrotic area of liver tissue: ~7%
[5]; 1 h-ischemia plus 6 h-reperfusion
  necrosis / cell death after hepatic IR (in words): attenuates necrosis; also recorded: prevents cell death
[5]; 1 h-ischemia plus 6 h of reperfusion
  attenuation of necrosis compared to vehicle-treated livers: ~90%
